According to ChEMBL document CHEMBL5113538, “Discovery of Novel Allosteric EGFR L858R Inhibitors for the Treatment of Non-Small-Cell Lung Cancer as a Single Agent or in Combination with Osimertinib” (J Med Chem, 2022):

Experiments:
[1] = Toxicity in Balb/c nude mouse xenografted with human NCI-H1975 cells harboring EGFR L858R/T790M mutant assessed as change in body weight at 10 mg/kg, po administered twice daily measured after 14 days; assay type: organism-based; conditions: in vivo, 336 h, time 14 day
[2] = AUC(0 to t) in CD1 mouse at 1 mg/kg, iv administered as single dose measured after 24 hrs by LC-MS/MS analysis; assay type: ADME, organism-based; set-up: time 24 hrs, dose 1 mg/kg, route iv; conditions: in vivo
[3] = Clearance in CD1 mouse at 1 mg/kg, iv administered as single dose measured after 24 hrs by LC-MS/MS analysis; assay type: ADME, organism-based; conditions: in vivo
BaF3 = assay: Antitumor activity against mouse BaF3 cells harboring EGFR L858R/C797S mutant allografted in Balb/c nude mouse assessed as in tumor growth inhibition at 10 mg/kg, po administered twice daily measured after 6 days; assay type: functional; conditions: BaF3, 144 h, time 6 day, read-out: TGI
[4] = Terminal half life in CD1 mouse at 1 mg/kg, iv administered as single dose measured after 24 hrs by LC-MS/MS analysis; assay type: ADME, organism-based; conditions: in vivo, read-out: beta t1/2 (converted)
[5] = Toxicity in Balb/c nude mouse allografted with mouse BaF3 cells harboring EGFR L858R/C797S mutant assessed as change in body weight at 10 mg/kg, po administered twice daily for 20 days; assay type: organism-based; conditions: in vivo, 480 h, time 20 day
[6] = target: T1, Glucocorticoid receptor (Homo sapiens) (UniProt P04150); assay: Inhibition of glucocorticoid receptor (unknown origin) at 10 uM relative to control
T1 sequence (whole entry): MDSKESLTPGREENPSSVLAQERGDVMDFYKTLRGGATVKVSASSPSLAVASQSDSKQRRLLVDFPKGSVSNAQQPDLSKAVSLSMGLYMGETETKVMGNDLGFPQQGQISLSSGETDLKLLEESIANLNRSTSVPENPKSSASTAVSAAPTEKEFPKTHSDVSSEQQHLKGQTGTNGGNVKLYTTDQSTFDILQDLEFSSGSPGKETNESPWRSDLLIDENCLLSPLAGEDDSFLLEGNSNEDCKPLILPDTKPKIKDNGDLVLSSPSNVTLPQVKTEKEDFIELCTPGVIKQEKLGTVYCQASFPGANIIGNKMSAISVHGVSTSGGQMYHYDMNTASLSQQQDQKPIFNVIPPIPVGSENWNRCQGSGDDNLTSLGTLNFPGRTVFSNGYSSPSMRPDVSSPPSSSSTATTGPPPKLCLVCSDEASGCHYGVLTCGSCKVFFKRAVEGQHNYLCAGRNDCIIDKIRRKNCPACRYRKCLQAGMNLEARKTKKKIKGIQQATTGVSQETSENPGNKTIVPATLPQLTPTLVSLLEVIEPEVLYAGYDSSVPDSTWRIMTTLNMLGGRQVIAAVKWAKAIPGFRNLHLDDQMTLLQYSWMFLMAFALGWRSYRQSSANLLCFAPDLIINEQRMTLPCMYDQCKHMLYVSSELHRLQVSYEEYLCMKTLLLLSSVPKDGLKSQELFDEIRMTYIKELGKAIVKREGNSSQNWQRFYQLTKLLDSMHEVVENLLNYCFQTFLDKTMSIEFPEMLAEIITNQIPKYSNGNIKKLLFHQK

Glucocorticoid receptor = target: T2, Glucocorticoid receptor (Homo sapiens, UniProt P04150); assay: Inhibition of glucocorticoid receptor (unknown origin)
T2 sequence (P04150 whole entry): T1 sequence (whole entry)

[7] = target: T3, Angiotensin-converting enzyme (Homo sapiens, UniProt P12821); assay: Inhibition of angiotensin-converting enzyme (unknown origin)
T3 sequence (P12821 whole entry): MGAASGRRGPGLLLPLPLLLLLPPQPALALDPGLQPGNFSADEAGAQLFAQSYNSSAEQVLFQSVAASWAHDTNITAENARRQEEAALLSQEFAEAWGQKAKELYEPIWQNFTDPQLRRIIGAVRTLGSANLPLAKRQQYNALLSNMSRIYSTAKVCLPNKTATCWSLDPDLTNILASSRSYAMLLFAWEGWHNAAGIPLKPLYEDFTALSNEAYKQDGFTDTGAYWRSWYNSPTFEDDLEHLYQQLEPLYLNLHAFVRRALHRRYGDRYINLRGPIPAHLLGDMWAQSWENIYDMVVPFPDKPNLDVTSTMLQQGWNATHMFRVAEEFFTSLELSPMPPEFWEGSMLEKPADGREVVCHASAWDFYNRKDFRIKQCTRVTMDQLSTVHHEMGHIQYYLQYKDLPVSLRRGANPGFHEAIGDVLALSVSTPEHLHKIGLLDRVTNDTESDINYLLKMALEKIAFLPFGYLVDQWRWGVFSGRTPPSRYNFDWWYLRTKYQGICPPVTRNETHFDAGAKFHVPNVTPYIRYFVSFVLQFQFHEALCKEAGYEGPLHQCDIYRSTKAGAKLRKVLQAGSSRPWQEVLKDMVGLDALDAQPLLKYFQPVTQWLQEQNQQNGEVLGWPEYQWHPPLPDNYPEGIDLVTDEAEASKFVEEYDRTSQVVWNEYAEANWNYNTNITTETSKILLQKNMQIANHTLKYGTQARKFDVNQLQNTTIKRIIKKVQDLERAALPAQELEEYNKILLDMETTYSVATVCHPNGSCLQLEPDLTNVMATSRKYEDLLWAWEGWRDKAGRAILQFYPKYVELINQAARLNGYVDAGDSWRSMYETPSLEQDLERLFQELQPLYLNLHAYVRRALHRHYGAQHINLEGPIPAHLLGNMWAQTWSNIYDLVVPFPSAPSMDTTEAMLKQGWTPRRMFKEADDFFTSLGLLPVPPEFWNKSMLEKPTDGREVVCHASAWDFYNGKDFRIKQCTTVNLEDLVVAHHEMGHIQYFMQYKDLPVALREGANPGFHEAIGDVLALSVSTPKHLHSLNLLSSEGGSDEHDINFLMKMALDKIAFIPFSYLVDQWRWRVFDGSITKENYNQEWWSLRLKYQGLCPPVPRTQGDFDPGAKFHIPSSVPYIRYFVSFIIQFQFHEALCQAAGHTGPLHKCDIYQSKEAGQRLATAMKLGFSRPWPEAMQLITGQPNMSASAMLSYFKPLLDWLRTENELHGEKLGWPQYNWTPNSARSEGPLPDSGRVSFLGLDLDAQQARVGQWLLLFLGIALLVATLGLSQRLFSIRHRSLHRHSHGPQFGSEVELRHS

[8] = target: T3, Angiotensin-converting enzyme; assay: Inhibition of angiotensin converting enzyme (unknown origin) at 10 uM relative to control
NCI-H292 = assay: Antiproliferative activity against human NCI-H292 cells assessed as cell growth inhibition; assay type: functional
[9] = target: Epidermal growth factor receptor (Homo sapiens, UniProt P00533, C797S/L858R)
Chain of Epidermal growth factor receptor (P00533 25-1210 C797S/L858R limits assumed): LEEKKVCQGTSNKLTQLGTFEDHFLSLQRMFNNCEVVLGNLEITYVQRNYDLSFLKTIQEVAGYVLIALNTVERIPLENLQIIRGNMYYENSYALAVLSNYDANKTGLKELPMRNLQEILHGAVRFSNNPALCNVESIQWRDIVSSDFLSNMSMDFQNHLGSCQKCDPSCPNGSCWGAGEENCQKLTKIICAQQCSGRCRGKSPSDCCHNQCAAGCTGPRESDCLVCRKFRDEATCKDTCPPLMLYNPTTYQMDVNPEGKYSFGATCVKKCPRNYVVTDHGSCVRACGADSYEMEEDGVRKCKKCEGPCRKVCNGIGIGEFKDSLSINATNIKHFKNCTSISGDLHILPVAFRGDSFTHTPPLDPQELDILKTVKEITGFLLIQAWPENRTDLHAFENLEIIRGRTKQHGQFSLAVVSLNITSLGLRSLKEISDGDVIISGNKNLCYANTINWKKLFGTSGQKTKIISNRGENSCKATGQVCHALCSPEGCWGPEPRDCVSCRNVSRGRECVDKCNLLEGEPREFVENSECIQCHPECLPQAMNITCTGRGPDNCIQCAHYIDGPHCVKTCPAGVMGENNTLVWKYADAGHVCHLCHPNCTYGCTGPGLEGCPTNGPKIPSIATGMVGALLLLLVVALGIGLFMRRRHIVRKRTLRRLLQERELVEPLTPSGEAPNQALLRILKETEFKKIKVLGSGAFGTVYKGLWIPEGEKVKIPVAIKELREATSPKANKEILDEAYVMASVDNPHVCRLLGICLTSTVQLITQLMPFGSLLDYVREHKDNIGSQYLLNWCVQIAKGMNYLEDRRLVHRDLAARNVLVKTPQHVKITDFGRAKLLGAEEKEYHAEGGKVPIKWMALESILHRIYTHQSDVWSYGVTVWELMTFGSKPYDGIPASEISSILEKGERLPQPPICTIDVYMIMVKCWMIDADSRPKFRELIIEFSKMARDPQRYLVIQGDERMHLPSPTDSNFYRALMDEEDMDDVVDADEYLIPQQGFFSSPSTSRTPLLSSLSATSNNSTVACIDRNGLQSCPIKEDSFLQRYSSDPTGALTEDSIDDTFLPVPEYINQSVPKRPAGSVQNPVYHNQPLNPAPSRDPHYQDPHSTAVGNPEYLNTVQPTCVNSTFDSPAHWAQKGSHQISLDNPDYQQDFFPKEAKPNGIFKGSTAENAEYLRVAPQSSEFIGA

AUC(0-t) at 24 h [2]: 803 ng·h/mL
clearance [3]: 20 mL/min/kg
half-life [4]: 6.6 h
inhibition [6]: 90%
IC50 (Glucocorticoid receptor): 3200 nM
IC50 [7]: > 3000 nM
inhibition [8]: 96%
GI50 (NCI-H292): 350 nM
IC50 [9]: 20 nM
Structure (SMILES): Cc1c(C#Cc2ccc(CN3CCC(CO)CC3)cc2)cc(C(F)F)c2cn(C(C(=O)Nc3nccs3)c3ncn4c3CCC43CC3)nc12 (configuration not stated)
Activity [1]: Non-Toxic
inhibition in vivo at 10 mg/kg (BaF3): 84%
Activity [5]: Non-Toxic
